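Cultured in 96-well plates, cells were exposed to test compound for 48 hours across five concentrations. GI50 is the concentration that inhibits growth by half. TGI marks complete inhibition of growth.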
What was measured:
Experiment in all cases: growth of human tumour cells (NCI), 48 h
786-0 renal = system: 786-0 renal
A498 renal = system: A498 renal
A549 NSCLC = system: A549 NSCLC
ACHN renal = system: ACHN renal
BT-549 breast = system: BT-549 breast
CAKI-1 renal = system: CAKI-1 renal
CCRF-CEM leukemia = system: CCRF-CEM leukemia
COLO 205 colon = system: COLO 205 colon
DU-145 prostate = system: DU-145 prostate
EKVX NSCLC = system: EKVX NSCLC
HCC-2998 colon = system: HCC-2998 colon
HCT-116 colon = system: HCT-116 colon
HCT-15 colon = system: HCT-15 colon
HL-60(TB) leukemia = system: HL-60(TB) leukemia
HOP-62 NSCLC = system: HOP-62 NSCLC
HOP-92 NSCLC = system: HOP-92 NSCLC
HS 578T breast = system: HS 578T breast
HT29 colon = system: HT29 colon
IGROV1 ovarian = system: IGROV1 ovarian
K-562 leukemia = system: K-562 leukemia
KM12 colon = system: KM12 colon
LOX IMVI melanoma = system: LOX IMVI melanoma
M14 melanoma = system: M14 melanoma
MALME-3M melanoma = system: MALME-3M melanoma
MCF7 breast = system: MCF7 breast
MDA-MB-231 breast = system: MDA-MB-231 breast
MDA-MB-435 = system: MDA-MB-435
MDA-MB-468 breast = system: MDA-MB-468 breast
MOLT-4 leukemia = system: MOLT-4 leukemia
NCI-H226 lung = system: NCI-H226 lung
NCI-H23 lung = system: NCI-H23 lung
NCI-H460 lung = system: NCI-H460 lung
NCI-H522 lung = system: NCI-H522 lung
OVCAR-3 ovarian = system: OVCAR-3 ovarian
OVCAR-4 ovarian = system: OVCAR-4 ovarian
OVCAR-5 ovarian = system: OVCAR-5 ovarian
OVCAR-8 ovarian = system: OVCAR-8 ovarian
PC-3 prostate = system: PC-3 prostate
RPMI-8226 leukemia = system: RPMI-8226 leukemia
RXF 393 renal = system: RXF 393 renal
SF-268 CNS = system: SF-268 CNS
SF-295 CNS = system: SF-295 CNS
SF-539 CNS = system: SF-539 CNS
SK-MEL-2 melanoma = system: SK-MEL-2 melanoma
SK-MEL-28 melanoma = system: SK-MEL-28 melanoma
SK-MEL-5 melanoma = system: SK-MEL-5 melanoma
SK-OV-3 ovarian = system: SK-OV-3 ovarian
SN12C renal = system: SN12C renal
SNB-19 CNS = system: SNB-19 CNS
SR leukemia = system: SR leukemia
SW-620 colon = system: SW-620 colon
T-47D breast = system: T-47D breast
TK-10 renal = system: TK-10 renal
U251 CNS = system: U251 CNS
UACC-257 melanoma = system: UACC-257 melanoma
UACC-62 melanoma = system: UACC-62 melanoma
UO-31 renal = system: UO-31 renal

CN(C)c1nc(NCCNS(=O)(=O)c2ccc(C(=O)/C=C/c3ccc(F)cc3)cc2)nc(N2CCOCC2)n1
GI50 (786-0 renal): 14.5 µM
TGI (786-0 renal): 28.7 µM
GI50 (A498 renal): 11.9 µM
TGI (A498 renal): 24.4 µM
GI50 (A549 NSCLC): 13.7 µM
TGI (A549 NSCLC): 27.9 µM
GI50 (ACHN renal): 13.1 µM
TGI (ACHN renal): 26 µM
GI50 (BT-549 breast): 15.1 µM
TGI (BT-549 breast): 29.2 µM
GI50 (CAKI-1 renal): 9.5 µM
TGI (CAKI-1 renal): 21.9 µM
GI50 (CCRF-CEM leukemia): 6.58 µM
TGI (CCRF-CEM leukemia): 39.1 µM
GI50 (COLO 205 colon): 14.6 µM
TGI (COLO 205 colon): 30.2 µM
GI50 (DU-145 prostate): 14.4 µM
TGI (DU-145 prostate): 27.8 µM
GI50 (EKVX NSCLC): 14.4 µM
TGI (EKVX NSCLC): 27.8 µM
GI50 (HCC-2998 colon): 16 µM
TGI (HCC-2998 colon): 29.9 µM
GI50 (HCT-116 colon): 2.29 µM
TGI (HCT-116 colon): 5.25 µM
GI50 (HCT-15 colon): 2.15 µM
TGI (HCT-15 colon): 4.92 µM
GI50 (HL-60(TB) leukemia): 14.7 µM
TGI (HL-60(TB) leukemia): > 100 µM
GI50 (HOP-62 NSCLC): 16.1 µM
TGI (HOP-62 NSCLC): 31.5 µM
GI50 (HOP-92 NSCLC): 12.7 µM
TGI (HOP-92 NSCLC): 28.5 µM
GI50 (HS 578T breast): 14.6 µM
TGI (HS 578T breast): 54.6 µM
GI50 (HT29 colon): 2.85 µM
TGI (HT29 colon): 8.39 µM
GI50 (IGROV1 ovarian): 2.27 µM
TGI (IGROV1 ovarian): 6.18 µM
GI50 (K-562 leukemia): 3.7 µM
TGI (K-562 leukemia): > 100 µM
GI50 (KM12 colon): 13.4 µM
TGI (KM12 colon): 30.6 µM
GI50 (LOX IMVI melanoma): 1.63 µM
TGI (LOX IMVI melanoma): 3.17 µM
GI50 (M14 melanoma): 15 µM
TGI (M14 melanoma): 30.5 µM
GI50 (MALME-3M melanoma): 14.6 µM
TGI (MALME-3M melanoma): 28.2 µM
GI50 (MCF7 breast): 2.99 µM
TGI (MCF7 breast): 11.2 µM
GI50 (MDA-MB-231 breast): 12.3 µM
TGI (MDA-MB-231 breast): 25.3 µM
GI50 (MDA-MB-435): 11.6 µM
TGI (MDA-MB-435): 24.6 µM
GI50 (MDA-MB-468 breast): 8.08 µM
TGI (MDA-MB-468 breast): 22.6 µM
GI50 (MOLT-4 leukemia): 4.69 µM
TGI (MOLT-4 leukemia): > 100 µM
GI50 (NCI-H226 lung): 12.3 µM
TGI (NCI-H226 lung): 28.2 µM
GI50 (NCI-H23 lung): 14.6 µM
TGI (NCI-H23 lung): 28.1 µM
GI50 (NCI-H460 lung): 15.7 µM
TGI (NCI-H460 lung): 33 µM
GI50 (NCI-H522 lung): 13.3 µM
TGI (NCI-H522 lung): 26.6 µM
GI50 (OVCAR-3 ovarian): 14.6 µM
TGI (OVCAR-3 ovarian): 28.5 µM
GI50 (OVCAR-4 ovarian): 11.9 µM
TGI (OVCAR-4 ovarian): 24.7 µM
GI50 (OVCAR-5 ovarian): 13.6 µM
TGI (OVCAR-5 ovarian): 26.8 µM
GI50 (OVCAR-8 ovarian): 14.7 µM
TGI (OVCAR-8 ovarian): 28.2 µM
GI50 (PC-3 prostate): 11.2 µM
TGI (PC-3 prostate): 25.5 µM
GI50 (RPMI-8226 leukemia): 1.91 µM
TGI (RPMI-8226 leukemia): 5.07 µM
GI50 (RXF 393 renal): 8.82 µM
TGI (RXF 393 renal): 21.2 µM
GI50 (SF-268 CNS): 15 µM
TGI (SF-268 CNS): 37.5 µM
GI50 (SF-295 CNS): 11.3 µM
TGI (SF-295 CNS): 23.8 µM
GI50 (SF-539 CNS): 13.2 µM
TGI (SF-539 CNS): 25.9 µM
GI50 (SK-MEL-2 melanoma): 13.7 µM
TGI (SK-MEL-2 melanoma): 26.8 µM
GI50 (SK-MEL-28 melanoma): 14.9 µM
TGI (SK-MEL-28 melanoma): 28.2 µM
GI50 (SK-MEL-5 melanoma): 15.7 µM
TGI (SK-MEL-5 melanoma): 29.2 µM
GI50 (SK-OV-3 ovarian): 13.8 µM
TGI (SK-OV-3 ovarian): 27.6 µM
GI50 (SN12C renal): 12 µM
TGI (SN12C renal): 24.4 µM
GI50 (SNB-19 CNS): 13.4 µM
TGI (SNB-19 CNS): 26.5 µM
GI50 (SR leukemia): 3.45 µM
TGI (SR leukemia): > 100 µM
GI50 (SW-620 colon): 3.39 µM
TGI (SW-620 colon): 12.3 µM
GI50 (T-47D breast): 11.9 µM
TGI (T-47D breast): 33.5 µM
GI50 (TK-10 renal): 15.3 µM
TGI (TK-10 renal): 28.7 µM
GI50 (U251 CNS): 4.74 µM
TGI (U251 CNS): 16.7 µM
GI50 (UACC-257 melanoma): 15.5 µM
TGI (UACC-257 melanoma): 29.2 µM
GI50 (UACC-62 melanoma): 10.8 µM
TGI (UACC-62 melanoma): 23 µM
GI50 (UO-31 renal): 11 µM
TGI (UO-31 renal): 23 µM

From PubChem BioAssay (NCI)
